The values below come from patent US20240368122A1, “JAK2 INHIBITORS AND METHODS OF USE THEREOF” (RELAY THERAPEUTICS, INC., priority 2021, published 2024).

Assay [1] concerns TF1 JAK2 V617F STAT5 reporter. In words: Cellular TF1 STAT5 assay (luciferase reporter), JAK2 V617F. Conditions: read-out: Cell PD TF1 V617F STAT5 (IC50). Type of assay: cell-based. The essentials: (§1)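 TF1 V617F JAK2 reporter cells, 10k/well; 10-pt 1:3 dose response from 10 mM 1000× DMSO stock; 18-20 h, 37 °C, 5% CO2; ONE-glo, 10 min RT; luminescence. Triplicate plates, DMSO vehicle.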
(In general: In a reporter assay the amount or activity of a reporter protein is the signal.)

The target in assay [2] is T1, JAK2 JH2 WT (V536-D812) [W659A, W777A, F794H solubilizing mutations] (Homo sapiens, UniProt O60674, F794H/W659A/W777A).
T1 construct: **JAK2 JH2 WT (V536-D812) [W659A, W777A, F794H solubilizing mutations]; C-thrombin-avi-His6; thrombin cleavage site (C); His6 (C); purchased Biortus
T1 sequence (O60674 536-812 W659A/W777A/F794H): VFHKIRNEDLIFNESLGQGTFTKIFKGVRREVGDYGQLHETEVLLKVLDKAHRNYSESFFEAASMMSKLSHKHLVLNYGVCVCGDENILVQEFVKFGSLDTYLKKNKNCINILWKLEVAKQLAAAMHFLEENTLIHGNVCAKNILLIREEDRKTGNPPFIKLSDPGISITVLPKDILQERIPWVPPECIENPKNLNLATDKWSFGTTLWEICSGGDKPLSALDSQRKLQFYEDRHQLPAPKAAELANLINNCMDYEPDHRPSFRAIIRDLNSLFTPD
In words: Surface Plasmon Resonance (SPR) binding assay, JAK2 JH2 domain. The gist of the method:
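Kinetics came from 1:1 fits of single-cycle runs at 20 °C: four 3-fold dilutions from 5 uM for JH1 or 500 nM for JH2, 60 s association, and 300 s or 1200 s dissociation respectively. Protein was freshly captured per compound in the presence of 10 uM stabilizer compound, with running buffer of pH 7.5 HEPES/NaCl/glycerol/DTT plus 2% DMSO.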

Assay [3] relates to TF1 JAK2 V617F STAT3 reporter. In words: Cellular TF1 STAT3 assay (luciferase reporter), JAK2 V617F. Type of assay: cell-based. The following applies: read-out: Cell PD-TF1 JAK2 V617F STAT3 (IC50). The gist of the method: as §1
[4] abbreviates: Homo sapiens, TF-1, TF1 cells, JAK2 V617F.

The structures appear in SMILES notation. Like-named read-outs stand apart in the source and are kept apart here.

Take `CNC(=O)c1nnc(NC(=O)C2CC2)cc1Nc1cccc(-c2cnc(C(=O)N(C)Cc3cccn(C)c3=O)c(F)c2)c1OC` [Compound 29]: the 50% inhibitory concentration (IC50) in assay [1] (TF1 JAK2 V617F) and in assay [3] (TF1 JAK2 V617F) was 50 to 500 nM each time. Further, the dissociation constant (Kd) in assay [2] (SPR, JAK2 JH2 domain) was in the range of 0.01 to 10 nM.

As to `CNC(=O)c1nnc(NC(=O)C2CC2)cc1Nc1cccc(-c2ccc(C(=O)N(C)C(C)c3nc(C)no3)nc2)c1OC` (stereo not drawn) [Compound 50], the IC50 in assay [1] (TF1 JAK2 V617F) and in assay [3] (TF1 JAK2 V617F) was 5000 to 100000 nM each time. In assay [2] (SPR, JAK2 JH2 domain), this molecule had a Kd of 0.01 to 10 nM.

Turning to `CNC(=O)c1nnc(NC(=O)C2CC2)cc1Nc1cccc(-c2cnn([C@H]3C[C@@H]([C@H](OC)c4ccccn4)C3)c2)c1OC` (single isomer, unassigned) [Compound 350], the IC50 in assay [1] (setting [4]) and in assay [3] (setting [4]) was 500 to 5000 nM in each case. For the same molecule, the dissociation constant Kd in assay [2] was 10 to 50 nM.

Turning to `COc1c(Nc2cc(NC(=O)C3CC3)nn3cc(C)nc23)ccc(C)c1-c1ccc(C(=O)N(C)Cc2cc(C#N)ccn2)nc1` [Compound 256], the half-maximal inhibitory concentration (IC50) in assay [1] (setting [4]) and in assay [3] (setting [4]) was 500 to 5000 nM in each case. In assay [2], this molecule gave an equilibrium dissociation constant (Kd) of 0.01 to 10 nM.

Regarding `CNC(=O)c1nnc(NC(=O)C2CC2)cc1Nc1cccc(-c2cnn(C3CN(Cc4cccc(C5(O)CC5)n4)C3)c2)c1OC` [Compound 274], the concentration for half-maximal inhibition (IC50) in assay [1] (setting [4]) and in assay [3] (setting [4]) was 50 to 500 nM in each case. For the same molecule, the Kd in assay [2] was 0.01 to 10 nM.

Regarding `CNC(=O)c1nnc(NC(=O)C2CC2)cc1Nc1cccc(-c2ccc(C(=O)N(C)Cc3cc(P(C)(C)=O)ccn3)nc2)c1OC` [Compound 380], the concentration for half-maximal inhibition (IC50) in assay [1] (setting [4]) and in assay [3] (setting [4]) was 5000 to 100000 nM each time. Further, the Kd in assay [2] lay within 0.01 to 10 nM.

With `CNC(=O)c1nnc(NC(=O)C2CC2)cc1Nc1cccc(-c2ccc(C(=O)N(C)Cc3cc(C#N)ccn3)nc2C2CC2)c1OC` [Compound 137], the concentration for half-maximal inhibition (IC50) in assay [1] (TF1 JAK2 V617F) and in assay [3] (TF1 JAK2 V617F) was 5000 to 100000 nM each time. Besides, in assay [2] (SPR, JAK2 JH2 domain), the Kd lay in the range of 10 to 50 nM.

As for `CNC(=O)c1nnc(NC(=O)C2CC2)cc1Nc1cccc(-c2cnc(C(=O)N(C)Cc3ccn(C)n3)c(F)c2)c1OC` [Compound 53], the concentration for half-maximal inhibition (IC50) in assay [1] (TF1 JAK2 V617F) and in assay [3] (TF1 JAK2 V617F) was 500 to 5000 nM each time. Also, the Kd in assay [2] (SPR, JAK2 JH2 domain) was 0.01 to 10 nM.

Turning to `CNC(=O)c1nnc(NC(=O)C2CC2)cc1Nc1cccc(-c2cnn(C3CN(Cc4cccc([N+](=O)[O-])n4)C3)c2)c1OC` [Compound 294], the IC50 in assay [1] (setting [4]) and in assay [3] (setting [4]) was 50 to 500 nM in each case. In assay [2], this molecule yielded a Kd of 0.01 to 10 nM.

With `CNC(=O)c1nnc(NC(=O)C2CC2)cc1Nc1cccc(-c2cnn(C3CC(Oc4cccc(C#N)n4)C3)c2)c1OC` (stereo not drawn) [Compound 372], the IC50 in assay [1] (setting [4]) and in assay [3] (setting [4]) was 500 to 5000 nM in each case. This molecule also displayed a Kd in assay [2] of 0.01 to 10 nM.

With `CNC(=O)c1nnc(NC(=O)OC2CC2)cc1Nc1cccc(-c2cnn(C3CN(Cc4cccc(C#N)n4)C3)c2)c1OC` [Compound 364], the IC50 in assay [1] (setting [4]) and in assay [3] (setting [4]) was 50 to 500 nM throughout. In assay [2], this molecule returned a Kd of 0.01 to 10 nM.

For the molecule `CNC(=O)c1nnc(NC(=O)C2CC2)cc1Nc1cccc(-c2cnn(C3CN(Cc4nccs4)C3)c2)c1OC` [Compound 122], the IC50 in assay [1] (TF1 JAK2 V617F) and in assay [3] (TF1 JAK2 V617F) was 50 to 500 nM throughout. The molecule further came in with a Kd in assay [2] (SPR, JAK2 JH2 domain) of 0.01 to 10 nM.

Consider `CNC(=O)c1nnc(NC(=O)C2CC2)cc1Nc1cccc(-c2cncc(C3CN(Cc4ccccn4)C3)c2)c1OC` [Compound 280], for which the IC50 in assay [1] (setting [4]) and in assay [3] (setting [4]) was 5000 to 100000 nM in each case. Further, in assay [2], the Kd lay in the range of 10 to 50 nM.

Turning to `CNC(=O)c1nnc(NC(=O)C2CC2)cc1Nc1cccc(-c2cnn([C@@H]3CCN(Cc4ccccn4)C3)c2)c1OC` (single isomer, unassigned) [Compound 334], the IC50 in assay [1] (setting [4]) and in assay [3] (setting [4]) was 500 to 5000 nM in each case. This molecule registered a Kd in assay [2] of 0.01 to 10 nM.

As to `CNC(=O)c1nnc(NC(=O)C2CC2)cc1Nc1cccc(-c2cnn([C@H]3C[C@@H](N(C)c4ccccn4)C3)c2)c1OC` [Compound 383], the IC50 in assay [1] (setting [4]) and in assay [3] (setting [4]) was 5000 to 100000 nM in each case. In assay [2], the dissociation constant (Kd) was 0.01 to 10 nM.

In the case of `CNC(=O)c1nnc(NC(=O)C2CC2)cc1Nc1cccc(-c2cc(C3CN(Cc4cccc(C#N)n4)C3)nn2C)c1OC` [Compound 191], the IC50 in assay [1] (TF1 JAK2 V617F) and in assay [3] (TF1 JAK2 V617F) was 5000 to 100000 nM in each case. In assay [2] (SPR, JAK2 JH2 domain), this molecule gave a dissociation constant Kd of 10 to 50 nM.

For orientation: IC50 means the midpoint of a concentration-inhibition curve. By Kd is commonly meant a measure of binding affinity in units of concentration. The low end stands for a tighter complex, the high end for a looser complex.
